Laboratory results: ChEMBL document CHEMBL2311467, “Microwave-assisted synthesis of pyrimido[4,5-b][1,6]naphthyridin-4(3H)-ones with potential antitumor activity” (Eur J Med Chem, 2013)

Legend:
Type in all cases: functional
NCI-H460 = experiment: Cytotoxicity against human NCI-H460 after 48 hrs by SRB assay; settings: NCI-H460, 48 h
TK-10 = experiment: Cytotoxicity against human TK10 after 48 hrs by SRB assay; settings: TK-10, 48 h
HT-29 = experiment: Cytotoxicity against human HT-29 after 48 hrs by SRB assay; settings: HT-29, 48 h
MDA-MB-468 = experiment: Cytotoxicity against human MDA-MB-468 after 48 hrs by SRB assay; settings: MDA-MB-468, 48 h
SN12C = experiment: Cytotoxicity against human SN12C after 48 hrs by SRB assay
OVCAR-5 = experiment: Cytotoxicity against human OVCAR5 after 48 hrs by SRB assay; settings: OVCAR-5, 48 h
SK-MEL-5 = experiment: Cytotoxicity against human SK-MEL-5 after 48 hrs by SRB assay; settings: SK-MEL-5, 48 h
NCI-H23 = experiment: Cytotoxicity against human NCI-H23 after 48 hrs by SRB assay; settings: NCI-H23, 48 h
COLO 205 = experiment: Cytotoxicity against human COLO205 after 48 hrs by SRB assay; settings: COLO 205, 48 h
HOP-62 = experiment: Cytotoxicity against human HOP62 after 48 hrs by SRB assay; settings: HOP-62, 48 h
CAKI-1 = experiment: Cytotoxicity against human CAKI-1 after 48 hrs by SRB assay; settings: CAKI-1, 48 h
HOP-92 = experiment: Cytotoxicity against human HOP92 after 48 hrs by SRB assay; settings: HOP-92, 48 h
786-0 = experiment: Cytotoxicity against human 786-0 after 48 hrs by SRB assay; settings: 786-0, 48 h
UACC-257 = experiment: Cytotoxicity against human UACC257 after 48 hrs by SRB assay; settings: UACC-257, 48 h
MDA-MB-435 = experiment: Cytotoxicity against human MDA-MB-435 after 48 hrs by SRB assay; settings: MDA-MB-435, 48 h
OVCAR-8 = experiment: Cytotoxicity against human OVCAR8 after 48 hrs by SRB assay; settings: OVCAR-8, 48 h
NCI-H226 = experiment: Cytotoxicity against human NCI-H226 after 48 hrs by SRB assay; settings: NCI-H226, 48 h
PC-3 = experiment: Cytotoxicity against human PC3 after 48 hrs by SRB assay; settings: PC-3, 48 h
A498 = experiment: Cytotoxicity against human A498 after 48 hrs by SRB assay; settings: A498, 48 h
[1] = Cytotoxicity against human HL-60(TB) after 48 hrs by SRB assay; settings: HL-60, 48 h
SNB-19 = experiment: Cytotoxicity against human SNB19 after 48 hrs by SRB assay; settings: SNB-19, 48 h
SNB-75 = experiment: Cytotoxicity against human SNB75 after 48 hrs by SRB assay; settings: SNB-75, 48 h
SW-620 = experiment: Cytotoxicity against human SW620 after 48 hrs by SRB assay; settings: SW-620, 48 h
RXF 393 = experiment: Cytotoxicity against human RXF393 after 48 hrs by SRB assay; settings: RXF 393, 48 h
MCF7 = experiment: Cytotoxicity against human MCF7 after 48 hrs by SRB assay; settings: MCF7, 48 h
UACC-62 = experiment: Cytotoxicity against human UACC62 after 48 hrs by SRB assay; settings: UACC-62, 48 h
T47D = experiment: Cytotoxicity against human T47D after 48 hrs by SRB assay
M14 = experiment: Cytotoxicity against human M14 after 48 hrs by SRB assay; settings: M14, 48 h
SF-268 = experiment: Cytotoxicity against human SF268 after 48 hrs by SRB assay; settings: SF-268, 48 h
HCT-15 = experiment: Cytotoxicity against human HCT15 after 48 hrs by SRB assay; settings: HCT-15, 48 h
LOX IMVI = experiment: Cytotoxicity against human LOXIMVI after 48 hrs by SRB assay
BT-549 = experiment: Cytotoxicity against human BT549 after 48 hrs by SRB assay; settings: BT-549, 48 h
UO-31 = experiment: Cytotoxicity against human UO31 after 48 hrs by SRB assay; settings: UO-31, 48 h
ACHN = experiment: Cytotoxicity against human ACHN after 48 hrs by SRB assay
OVCAR-3 = experiment: Cytotoxicity against human OVCAR3 after 48 hrs by SRB assay; settings: OVCAR-3, 48 h
NCI-H322M = experiment: Cytotoxicity against human NCI-H322M after 48 hrs by SRB assay
HCC 2998 = experiment: Cytotoxicity against human HCC2998 after 48 hrs by SRB assay; settings: HCC 2998, 48 h
SK-MEL-2 = experiment: Cytotoxicity against human SK-MEL-2 after 48 hrs by SRB assay; settings: SK-MEL-2, 48 h
Hs-578T = experiment: Cytotoxicity against human Hs578T after 48 hrs by SRB assay
A549 = experiment: Cytotoxicity against human A549 after 48 hrs by SRB assay; settings: A549, 48 h
SF-539 = experiment: Cytotoxicity against human SF539 after 48 hrs by SRB assay; settings: SF-539, 48 h
NCI/ADR-RES = experiment: Cytotoxicity against human NCI/ADR-RES after 48 hrs by SRB assay
SR = experiment: Cytotoxicity against human SR after 48 hrs by SRB assay
[2] = Cytotoxicity against human EKVX after 48 hrs by SRB assay
MOLT-4 = experiment: Cytotoxicity against human MOLT4 after 48 hrs by SRB assay; settings: MOLT-4, 48 h
U-251 = experiment: Cytotoxicity against human U251 after 48 hrs by SRB assay; settings: U-251, 48 h
SF-295 = experiment: Cytotoxicity against human SF295 after 48 hrs by SRB assay; settings: SF-295, 48 h
SK-OV-3 = experiment: Cytotoxicity against human SKOV3 after 48 hrs by SRB assay; settings: SK-OV-3, 48 h
SK-MEL-28 = experiment: Cytotoxicity against human SK-MEL-28 after 48 hrs by SRB assay; settings: SK-MEL-28, 48 h
NCI-H522 = experiment: Cytotoxicity against human NCI-H522 after 48 hrs by SRB assay; settings: NCI-H522, 48 h
IGROV-1 = experiment: Cytotoxicity against human IGROV1 after 48 hrs by SRB assay; settings: IGROV-1, 48 h
OVCAR-4 = experiment: Cytotoxicity against human OVCAR4 after 48 hrs by SRB assay; settings: OVCAR-4, 48 h
DU-145 = experiment: Cytotoxicity against human DU145 after 48 hrs by SRB assay; settings: DU-145, 48 h
HCT-116 = experiment: Cytotoxicity against human HCT116 after 48 hrs by SRB assay; settings: HCT-116, 48 h
MDA-MB-231 = experiment: Cytotoxicity against human MDA-MB-231 after 48 hrs by SRB assay; settings: MDA-MB-231, 48 h
KM12 = experiment: Cytotoxicity against human KM12 after 48 hrs by SRB assay; settings: KM12, 48 h
Malme-3M = experiment: Cytotoxicity against human MALME-3M after 48 hrs by SRB assay
[3] = read-out: LC50 (the source's name)

COc1cc(/C=C2\CN(C)CC3=C2Nc2nc(SC)[nH]c(=O)c2C3c2cc(OC)c(OC)c(OC)c2)cc(OC)c1OC (centres undefined)
GI50 (NCI-H460): 2300 nM | CC50 (NCI-H460; [3]): > 100 µM | GI50 (TK-10): 6.07 µM | CC50 (TK-10; [3]): 46.9 µM | GI50 (HT-29): 2350 nM | CC50 (HT-29; [3]): 16.3 µM | GI50 (MDA-MB-468): 2200 nM | CC50 (MDA-MB-468; [3]): 38.8 µM | GI50 (SN12C): 2980 nM | CC50 (SN12C; [3]): 78.1 µM | GI50 (OVCAR-5): 4.83 µM | CC50 (OVCAR-5; [3]): 48.7 µM | GI50 (SK-MEL-5): 2830 nM | CC50 (SK-MEL-5; [3]): 34.7 µM | GI50 (NCI-H23): 3.54 µM | CC50 (NCI-H23; [3]): > 100 µM | GI50 (COLO 205): 2110 nM | CC50 (COLO 205; [3]): 12.6 µM | GI50 (HOP-62): 2460 nM | CC50 (HOP-62; [3]): 41.3 µM | GI50 (CAKI-1): 2150 nM | CC50 (CAKI-1; [3]): 11.9 µM | GI50 (HOP-92): 3.4 µM | CC50 (HOP-92; [3]): 53.4 µM | GI50 (786-0): 4.01 µM | CC50 (786-0; [3]): 87.3 µM | GI50 (UACC-257): 2240 nM | CC50 (UACC-257; [3]): 29.1 µM | GI50 (MDA-MB-435): 2510 nM | CC50 (MDA-MB-435; [3]): 39.8 µM | GI50 (OVCAR-8): 2890 nM | CC50 (OVCAR-8; [3]): > 100 µM | GI50 (NCI-H226): 6.17 µM | CC50 (NCI-H226; [3]): 60.6 µM | GI50 (PC-3): 3.63 µM | CC50 (PC-3; [3]): > 100 µM | GI50 (A498): 9.58 µM | CC50 (A498; [3]): 46.7 µM | GI50 [1]: 2260 nM | CC50 [1, 3]: > 100 µM | GI50 (SNB-19): 8.65 µM | CC50 (SNB-19; [3]): 50 µM | GI50 (SNB-75): 7.36 µM | CC50 (SNB-75; [3]): 57.8 µM | GI50 (SW-620): 2000 nM | CC50 (SW-620; [3]): 9.69 µM | GI50 (RXF 393): 1810 nM | CC50 (RXF 393; [3]): 6.61 µM | GI50 (MCF7): 4.98 µM | CC50 (MCF7; [3]): 50 µM | GI50 (UACC-62): 2060 nM | CC50 (UACC-62; [3]): 18.5 µM | GI50 (T47D): 3.69 µM | CC50 (T47D; [3]): > 100 µM | GI50 (M14): 2980 nM | CC50 (M14; [3]): 50.9 µM | GI50 (SF-268): 1660 nM | CC50 (SF-268; [3]): 6.96 µM | GI50 (HCT-15): 2070 nM | CC50 (HCT-15; [3]): 13.6 µM | GI50 (LOX IMVI): 1660 nM | CC50 (LOX IMVI; [3]): 9.37 µM | GI50 (BT-549): 2980 nM | CC50 (BT-549; [3]): 29.5 µM | GI50 (UO-31): 1570 nM | CC50 (UO-31; [3]): 7.54 µM | GI50 (ACHN): 1930 nM | CC50 (ACHN; [3]): 6.53 µM | GI50 (OVCAR-3): 2640 nM | CC50 (OVCAR-3; [3]): 23.4 µM | GI50 (NCI-H322M): 6.6 µM | CC50 (NCI-H322M; [3]): 46.1 µM | GI50 (HCC 2998): 1910 nM | CC50 (HCC 2998; [3]): 6.9 µM | GI50 (SK-MEL-2): 9.92 µM | CC50 (SK-MEL-2; [3]): > 100 µM | GI50 (Hs-578T): 8.88 µM | CC50 (Hs-578T; [3]): > 100 µM | GI50 (A549): 3.26 µM | CC50 (A549; [3]): 62.5 µM | GI50 (SF-539): 3.64 µM | CC50 (SF-539; [3]): > 100 µM | GI50 (NCI/ADR-RES): 3.6 µM | CC50 (NCI/ADR-RES; [3]): > 100 µM | GI50 (SR): 1480 nM | CC50 (SR; [3]): > 100 µM | GI50 [2]: 8.44 µM | CC50 [2, 3]: > 100 µM | GI50 (MOLT-4): 2920 nM | CC50 (MOLT-4; [3]): > 100 µM | GI50 (U-251): 1760 nM | CC50 (U-251; [3]): 9.75 µM | GI50 (SF-295): 2240 nM | CC50 (SF-295; [3]): 26.9 µM | GI50 (SK-OV-3): 3.07 µM | CC50 (SK-OV-3; [3]): 51 µM | GI50 (SK-MEL-28): 2100 nM | CC50 (SK-MEL-28; [3]): 8.79 µM | GI50 (NCI-H522): 2040 nM | CC50 (NCI-H522; [3]): 15.5 µM | GI50 (IGROV-1): 3.1 µM | CC50 (IGROV-1; [3]): 85.8 µM | GI50 (OVCAR-4): 4.99 µM | CC50 (OVCAR-4; [3]): 81 µM | GI50 (DU-145): 3.6 µM | CC50 (DU-145; [3]): 34.8 µM | GI50 (HCT-116): 1660 nM | CC50 (HCT-116; [3]): 6.05 µM | GI50 (MDA-MB-231): 3.14 µM | CC50 (MDA-MB-231; [3]): 50.3 µM | GI50 (KM12): 1700 nM | CC50 (KM12; [3]): 6.08 µM | GI50 (Malme-3M): 2820 nM | CC50 (Malme-3M; [3]): 55.5 µM
